The values below are quoted from earlier work in patent US5179102A, “Naphthyridinyl/naphthyridinylalkyl-n-terminal anino hydroxy β-amino acid derivatives” (G. D. Searle & Co., priority 1991, dated 1993).

Each structure is given as a SMILES string. Square brackets hold non-standard residues; d marks the D form. Peptide text beside a SMILES is read from it. * marks the point of attachment. Sta = CC(C)C[C@H](N)[C@@H](O)CC(=O)O; Isovaleryl = CC(C)CC(=O)*

The test system of this data set is hog renin. Conditions: after the injection of hog renin into nephrectomized rats.

For the compound `CC(C)CC(=O)N[C@H](C(=O)N[C@H](C(=O)N[C@@H](CC(C)C)[C@@H](O)CC(=O)N[C@@H](C)C(=O)N[C@@H](CC(C)C)[C@@H](O)CC(=O)O)C(C)C)C(C)C` [pepstatin] (Isovaleryl-VV[Sta]A[Sta]-OH), the “reduce blood pressure in vivo” value is given as “found to reduce blood pressure in vivo”.
